This note sets out measurements from patent US20240408169A1 (priority 2023, published 2024).

Molecules are shown by their SMILES. Like-named read-outs stand apart in the source and are kept apart here. *1 amine or outer side, *2 acyl side, *3 side chain or, on linkers, in order; H or OH if unused. Where a SMILES comes first, the peptide text is derived from it. Bridges are numbered along the chain shown (N, C = ends). [ ]: non-standard residue; d: D form. The star is where a group is joined. ξ: configuration not given here. X160 = CC(=O)N1CC=C(c2ccc(Cl)cc2C[C@@H](C(=O)[*:2])N(C)[*:1])C(C)(C)C1; NMe3Pal(2-OiBu,5-Cl) = CN[C@@H](Cc1cc(Cl)cnc1OCC(C)C)C(=O)O; NMehhhLys(Me) = CN([C@@H](CCCCCCCN(C)[*:3])C(=O)[*:2])[*:1]; NMe3Pal(2-OiPr,5-Cl) = CN[C@@H](Cc1cc(Cl)cnc1OC(C)C)C(=O)O; X211 = Cc1ncc(-c2ccc(Cl)cc2C[C@@H](C(=O)[*:2])N(C)[*:1])s1; NMe(hhhLys) = CN([C@@H](CCCCCCCN[*:3])C(=O)[*:2])[*:1]; cBuCO(3,3-F2-1-CF3) = O=C(C1(C(F)(F)F)CC(F)(F)C1)*; X25 = CCOc1ncc(Cl)cc1C[C@@H](C(=O)[*:2])N(C)[*:1]; Pro(trans-4-F) = O=C(O)[C@@H]1C[C@@H](F)CN1; Gly(cPr) = N[C@H](C(=O)O)C1CC1; ξGly(cPr) = NC(C(=O)O)C1CC1

The test system of one experiment is OVCAR3 cells. Nature of the experiment: MTT proliferation assay, OVCAR3.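 Further: compound given as an 8- or 10-point series, one day after plating, with exposure covering roughly 3-4 cell doublings.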 Type of experiment: cell-based. The conditions noted are these: 5 days compound exposure, 1:3 serial dilution starting at 10 μM. (Formazan colour is commonly taken as a measure of viable cells.)
For a further experiment, the system named is NCI-H1048 cells. Nature of the experiment: MTT proliferation assay, NCI-H1048.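 Further: Dose-response in 96-well plates over 8 or 10 concentration points, with exposure spanning 3-4 cell doublings.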 To be noted: 5 days compound exposure, 1:3 serial dilution starting at 10 μM. Type of experiment: cell-based.
In another experiment the test system is WI-38 cells. Nature of the experiment: MTT proliferation assay, WI-38.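 Further: Eight- or ten-point dilution series, with exposure length chosen to span about three to four cell doublings.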 Type of experiment: cell-based. To be noted: 3 days compound exposure, 1:3 serial dilution starting at 10 μM.
The next experiment concerns the target T1, CyclinB1/CDK1 (Homo sapiens, UniProt P14635).
T1 construct: purchased Eurofins, discovery 14-450
Nature of the experiment: Fluorescence Polarization (FP) competitive binding assay, Cyclin B1/Cdk1.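 Further: fluorescence polarization read after equilibration at room temperature, with IC50 taken from serially diluted dose-response curves.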

The next experiment deals with T2, CyclinA2/CDK2 (Homo sapiens, UniProt P20248).
T2 construct: purchased CRELUX Protein Services
Nature of the experiment: Fluorescence Polarization (FP) competitive binding assay, Cyclin A2/Cdk2.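 Further: plates equilibrated two hours at room temperature before polarization reading, IC50 fitted from eight-concentration compound titration curves.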 To be noted: 8 nM Cyclin A2/Cdk2, 2 nM FAM probe; average of 2-3 independent experiments; read-out: Cyclin A FP IC50. (In fluorescence polarisation assays a small probe gives low polarisation when free and higher when bound to something large.)

A further experiment has as its target T3, CyclinE1/CDK2 (Homo sapiens, UniProt P24864).
T3 construct: purchased Eurofins, discovery 14-475
Nature of the experiment: Fluorescence Polarization (FP) competitive binding assay, Cyclin E1/Cdk2.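 Further: readings taken after two-hour equilibration at room temperature in HEPES buffer with NaCl, DTT, NP-40 and BSA, IC50 fitted from eight-concentration serial dilution series.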

The mark [1] stands for this setting: 10 nM Cyclin B1/Cdk1, 2 nM FAM probe; average of 2-3 independent experiments; read-out: Cyclin B FP IC50.
The mark [2] stands for this setting: 10 nM Cyclin E1/Cdk2, 2 nM FAM probe, average of 2-3 independent experiments, read-out: Cyclin E FP IC50.
Where [3] appears, read: read-out: Cyclin B FP IC50; 10 nM Cyclin B1/Cdk1, 2 nM FAM probe; average of 2-3 independent experiments.

As a reminder, the GI50 is the concentration that inhibits growth by half. Lower therefore signals more potent growth inhibition. As usually defined, the IC50 is the point on the concentration scale where inhibition reaches its midpoint.

Turning to `CC(C)C[C@@H]1NC(=O)[C@@H](N(C)C(=O)[C@@H](NC(=O)[C@@H]2C[C@@H](F)CN2C(=O)C2(C(F)(F)F)CC(F)(F)C2)C2CC2)CC=CCCCCNC(=O)[C@H](Cc2cc(Cl)ccc2C2=CCN(C)CC2)N(C)C1=O` (single isomer, unassigned) [Example 56-P1], the GI50 in the experiment with OVCAR3 cells stood at 1020 nM; with NCI-H1048 cells, 470 nM; with WI-38 cells it was 5760 nM. In addition, the IC50 at CyclinB1/CDK1 (setting [1]) was 40 nM; at CyclinA2/CDK2, 860 nM.
Taken in the same sequence, the figures for `CC(C)C[C@@H]1NC(=O)[C@@H](N(C)C(=O)[C@@H](NC(=O)[C@@H]2C[C@@H](F)CN2C(=O)C2(C(F)(F)F)CC(F)(F)C2)C2CC2)CC=CCCCCNC(=O)[C@H](Cc2cc(Cl)ccc2C2=CCN(C)CC2)N(C)C1=O` (single isomer, unassigned) [Example 56-P2] were 430 nM, 190 nM, 3760 nM, 30 nM and 590 nM.
For the compound `CC(=O)N1[C@H]2CC[C@@H]1C=C(c1ccc(Cl)cc1C[C@H]1C(=O)N(C)CCCCCCC[C@H](N(C)C(=O)[C@@H](NC(=O)[C@@H]3C[C@@H](F)CN3C(=O)C3(C(F)(F)F)CC(F)(F)C3)C3CC3)C(=O)N[C@@H](CC(C)C)C(=O)N1C)C2` (single isomer, unassigned) [Example 57-P1], the 50% growth inhibitory concentration (GI50) in the experiment with OVCAR3 cells came to 10 nM; in the experiment with NCI-H1048 cells, 10 nM; in the experiment on WI-38 cells, 13800 nM. Also, the 50% inhibitory concentration (IC50) stood at 1410 nM at CyclinE1/CDK2 (setting [2]), 20 nM on CyclinB1/CDK1 (setting [1]) and 20 nM at CyclinA2/CDK2.
For `CC(=O)N1[C@H]2CC[C@@H]1C=C(c1ccc(Cl)cc1C[C@H]1C(=O)N(C)CCCCCCC[C@H](N(C)C(=O)[C@@H](NC(=O)[C@@H]3C[C@@H](F)CN3C(=O)C3(C(F)(F)F)CC(F)(F)C3)C3CC3)C(=O)N[C@@H](CC(C)C)C(=O)N1C)C2` (single isomer, unassigned) [Example 57-P2], the values for the GI50 in the experiment on OVCAR3 cells, with NCI-H1048 cells and with WI-38 cells were 10 nM, 10 nM and 16900 nM, respectively. Further, the IC50 on CyclinE1/CDK2 (setting [2]) is 1310 nM; at CyclinB1/CDK1 (setting [1]) it was 20 nM; on CyclinA2/CDK2 it was 20 nM.
Regarding `CC(C)C[C@@H]1NC(=O)[C@@H](N(C)C(=O)[C@@H](NC(=O)[C@@H]2C[C@@H](F)CN2C(=O)C2(C(F)(F)F)CCC2)C2CC2)CC=CCCCCNC(=O)[C@H](Cc2cc(Cl)cnc2OC2CC2)N(C)C1=O` (single isomer, unassigned) [Example 107-P1], the GI50 in the experiment on OVCAR3 cells was 1010 nM; with NCI-H1048 cells, 700 nM; in the experiment on WI-38 cells, 5290 nM. Besides, the IC50 was 540 nM on CyclinE1/CDK2 (setting [2]), 20 nM on CyclinB1/CDK1 (setting [1]) and 250 nM at CyclinA2/CDK2.
For the compound `CC(C)C[C@@H]1NC(=O)[C@@H](N(C)C(=O)[C@@H](NC(=O)[C@@H]2C[C@@H](F)CN2C(=O)C2(C(F)(F)F)CCC2)C2CC2)CC=CCCCCNC(=O)[C@H](Cc2cc(Cl)cnc2OC(C)C)N(C)C1=O` (single isomer, unassigned) [Example 136-P1], the concentration for 50% growth inhibition (GI50) with OVCAR3 cells is 1770 nM; in the experiment on NCI-H1048 cells it was 830 nM; in the experiment on WI-38 cells, 3960 nM. Further, the IC50 on CyclinE1/CDK2 (setting [2]) worked out at 320 nM; at CyclinB1/CDK1 (setting [1]) it was 20 nM; at CyclinA2/CDK2, 140 nM.
As for `CC(C)C[C@@H]1NC(=O)[C@@H](N(C)C(=O)[C@@H](NC(=O)[C@@H]2C[C@@H](F)CN2C(=O)C2(C(F)(F)F)CCC2)C2CC2)CC=CCCCCNC(=O)[C@H](Cc2cc(Cl)cnc2OC(C)C)N(C)C1=O` (single isomer, unassigned) [Example 136-P2], the values for the GI50 with OVCAR3 cells, in the experiment with NCI-H1048 cells and with WI-38 cells were 640 nM, 450 nM and 6670 nM, respectively. The IC50 on CyclinE1/CDK2 (setting [2]) is 120 nM; at CyclinB1/CDK1 (setting [1]), 20 nM; on CyclinA2/CDK2, 80 nM.
With `CC[C@H](NC(=O)C1(C(F)(F)F)CC1)C(=O)N[C@@H](C)C(=O)N[C@H]1CC=CCCCCNC(=O)[C@H](Cc2cc(Cl)ccc2Cl)N(C)C(=O)[C@H](CC(C)C)NC1=O` [Example 1, N—((S)-1-(((S)-1-(((3S,6S,9S)-3-(2,5-dichlorobenzyl)-6-isobutyl-4-methyl-2,5,8-trioxo-1,4,7-triazacyclohexadec-11-en-9-yl)amino)-1-oxopropan-2-yl)amino)-1-oxobutan-2-yl)-1-(trifluoromethyl)cyclopropane-1-carboxamide], the values for the GI50 with OVCAR3 cells, in the experiment on NCI-H1048 cells and in the experiment with WI-38 cells were 6610 nM, 4000 nM and 14600 nM, respectively. Also, the concentration for half-maximal inhibition (IC50) on CyclinE1/CDK2 (setting [2]) turned out to be 440 nM; on CyclinB1/CDK1 (setting [1]), 20 nM; on CyclinA2/CDK2, 210 nM.
Turning to `Cc1ncc(-c2ccc(Cl)cc2C[C@H]2C(=O)N(C)CCCCCCC[C@H](N(C)C(=O)[C@@H](NC(=O)[C@@H]3C[C@@H](F)CN3C(=O)C3(C(F)(F)F)CC(F)(F)C3)C3CC3)C(=O)N[C@@H](CC(C)C)C(=O)N2C)s1` [Example 75] ({cBuCO(3,3-F2-1-CF3)}-[Pro(trans-4-F)][Gly(cPr)][NMehhhLys(Me)]L[X211]; lactam 3-C), the values for the concentration for 50% growth inhibition (GI50) in the experiment with OVCAR3 cells, with NCI-H1048 cells and in the experiment on WI-38 cells were 20 nM, 10 nM and 5890 nM, respectively. For the same compound, the IC50 came to 440 nM at CyclinE1/CDK2 (setting [2]) and 20 nM at CyclinB1/CDK1 (setting [1]).
As to `CC(C)C[C@@H]1NC(=O)[C@@H](N(C)C(=O)[C@@H](NC(=O)[C@@H]2C[C@@H](F)CN2C(=O)C2(C(F)(F)F)CC(F)(F)C2)C2CC2)CCCCCCCN(C)C(=O)[C@H](Cc2cc(Cl)cnc2OC(C)C)N(C)C1=O` [Example 120] ({cBuCO(3,3-F2-1-CF3)}-[Pro(trans-4-F)][Gly(cPr)][NMehhhLys(Me)]L[NMe3Pal(2-OiPr,5-Cl)]; lactam 3-C), the GI50 turned out to be 130 nM in the experiment with OVCAR3 cells, 100 nM in the experiment on NCI-H1048 cells and 9280 nM in the experiment with WI-38 cells. In addition, the 50% inhibitory concentration (IC50) was found to be 210 nM at CyclinE1/CDK2 (setting [2]) and 20 nM on CyclinB1/CDK1 (setting [1]).
In the case of `CCOc1ncc(Cl)cc1C[C@H]1C(=O)N(C)CCCCCCC[C@H](N(C)C(=O)[C@@H](NC(=O)[C@@H]2C[C@@H](F)CN2C(=O)C2(C(F)(F)F)CC(F)(F)C2)C2CC2)C(=O)N[C@@H](CC(C)C)C(=O)N1C` [Example 225] ({cBuCO(3,3-F2-1-CF3)}-[Pro(trans-4-F)][Gly(cPr)][NMehhhLys(Me)]L[X25]; lactam 3-C), the 50% growth inhibitory concentration (GI50) was 30 nM in the experiment on OVCAR3 cells, 20 nM in the experiment with NCI-H1048 cells and 8530 nM in the experiment with WI-38 cells. The half-inhibitory concentration (IC50) on CyclinE1/CDK2 was found to be 190 nM; at CyclinB1/CDK1 (setting [3]), 20 nM.
On to `CC(C)COc1ncc(Cl)cc1C[C@H]1C(=O)N(C)CCCCCCC[C@H](N(C)C(=O)[C@@H](NC(=O)[C@@H]2C[C@@H](F)CN2C(=O)C2(C(F)(F)F)CC(F)(F)C2)C2CC2)C(=O)N[C@@H](CC(C)C)C(=O)N1C` [Example 228] ({cBuCO(3,3-F2-1-CF3)}-[Pro(trans-4-F)][Gly(cPr)][NMehhhLys(Me)]L[NMe3Pal(2-OiBu,5-Cl)]; lactam 3-C), for which the concentration for 50% growth inhibition (GI50) is 80 nM with OVCAR3 cells, 60 nM in the experiment on NCI-H1048 cells and 9540 nM with WI-38 cells. Also, the figures for the IC50 at CyclinE1/CDK2 and at CyclinB1/CDK1 (setting [3]) were 250 nM and 20 nM, respectively.
On to `CC(=O)N1CC=C(c2ccc(Cl)cc2C[C@H]2C(=O)NCCCCCCC[C@H](N(C)C(=O)C(NC(=O)[C@@H]3C[C@@H](F)CN3C(=O)C3(C(F)(F)F)CC(F)(F)C3)C3CC3)C(=O)N[C@@H](CC(C)C)C(=O)N2C)C(C)(C)C1` (stereo partly drawn) [Example 277] ({cBuCO(3,3-F2-1-CF3)}-[Pro(trans-4-F)][ξGly(cPr)][NMe(hhhLys)]L[X160]; lactam 3-C), for which the concentration for 50% growth inhibition (GI50) with OVCAR3 cells was found to be 360 nM; with NCI-H1048 cells, 330 nM; in the experiment with WI-38 cells, 3820 nM. The IC50 at CyclinB1/CDK1 (setting [1]) amounted to 20 nM; on CyclinA2/CDK2, 600 nM.
